Assay results as given in the NIST ThermoML archive (doi:10.1021/je0501890).

Assay: xn = mol fraction of the nth substance listed
Details: 101.33 kPa, Liquid

CC(Cl)(Cl)Cl [1,1,1-trichloroethane] + CCCCCCCO
Details	mass density, 293.15 K [kg/m3]	mass density, 298.15 K [kg/m3]	mass density, 303.15 K [kg/m3]	viscosity, 293.15 K [mPa·s]	viscosity, 298.15 K [mPa·s]	viscosity, 303.15 K [mPa·s]
x2 = 0.103	1252.2	1244.75	1237.24	–	–	–
x2 = 0.1048	–	–	–	0.996	0.914	0.858
x2 = 0.1615	1214.95	1207.9	1200.8	–	–	–
x2 = 0.2027	–	–	–	1.224	1.11	1.014
x2 = 0.2047	1188.54	1181.77	1174.93	–	–	–
x2 = 0.2545	1159.2	1152.74	1146.2	–	–	–
x2 = 0.3034	–	–	–	1.529	1.379	1.245
x2 = 0.309	1128.37	1122.23	1116.01	–	–	–
x2 = 0.3514	1105.21	1099.32	1093.32	–	–	–
x2 = 0.3542	–	–	–	1.714	1.539	1.388
x2 = 0.398	–	–	–	1.895	1.699	1.526
x2 = 0.4022	1078.45	1072.77	1067.06	–	–	–
x2 = 0.5016	1028.73	1023.53	1018.27	–	–	–
x2 = 0.503	–	–	–	2.426	2.14	1.907
x2 = 0.5509	1005.32	1000.35	995.29	–	–	–
x2 = 0.5533	–	–	–	2.729	2.393	2.127
x2 = 0.58	991.84	986.98	982.04	–	–	–
x2 = 0.5993	–	–	–	3.043	2.664	2.353
x2 = 0.6573	957.28	952.71	948.09	–	–	–
x2 = 0.6724	950.85	946.34	941.77	–	–	–
x2 = 0.6811	–	–	–	3.69	3.196	2.791
x2 = 0.7416	–	–	–	4.217	3.629	3.141
x2 = 0.7421	921.42	917.17	912.86	–	–	–
x2 = 0.7937	900.46	896.37	892.23	–	–	–
x2 = 0.7956	–	–	–	4.783	4.09	3.495
x2 = 0.8459	879.86	875.95	871.97	–	–	–
x2 = 0.9003	–	–	–	5.912	5.018	4.297
x2 = 0.9027	858.15	854.41	850.61	–	–	–

ClC(Cl)C(Cl)Cl [1,1,2,2-tetrachloroethane] + CCCCCCCO
Details	mass density, 293.15 K [kg/m3]	mass density, 298.15 K [kg/m3]	mass density, 303.15 K [kg/m3]	viscosity, 293.15 K [mPa·s]	viscosity, 298.15 K [mPa·s]	viscosity, 303.15 K [mPa·s]
x2 = 0.0506	1541.06	1533.58	1526.03	–	–	–
x2 = 0.0997	–	–	–	1.852	1.69	1.547
x2 = 0.1031	1488.84	1481.6	1474.35	–	–	–
x2 = 0.1519	1442.21	1435.22	1428.22	–	–	–
x2 = 0.2003	1397.58	1390.83	1384.07	–	–	–
x2 = 0.2073	–	–	–	2.091	1.907	1.71
x2 = 0.2515	1351.89	1345.42	1338.9	–	–	–
x2 = 0.2998	1310.19	1303.92	1297.68	–	–	–
x2 = 0.3054	–	–	–	2.417	2.187	1.927
x2 = 0.3445	–	–	–	2.558	2.272	2.027
x2 = 0.3499	1268.42	1262.39	1256.35	–	–	–
x2 = 0.4085	–	–	–	2.833	2.506	2.225
x2 = 0.4109	1219.27	1213.55	1207.77	–	–	–
x2 = 0.4464	1191.47	1185.87	1180.31	–	–	–
x2 = 0.5042	–	–	–	3.341	2.908	2.555
x2 = 0.5113	1142.28	1136.96	1131.65	–	–	–
x2 = 0.5438	–	–	–	3.564	3.101	2.715
x2 = 0.5524	1112.04	1106.9	1101.73	–	–	–
x2 = 0.5988	–	–	–	3.924	3.392	2.962
x2 = 0.6013	1077.03	1072.05	1067.13	–	–	–
x2 = 0.6506	1042.68	1037.91	1033.17	–	–	–
x2 = 0.6937	–	–	–	4.654	3.992	3.429
x2 = 0.6959	1011.91	1007.34	1002.73	–	–	–
x2 = 0.7507	975.7	971.35	966.91	–	–	–
x2 = 0.753	–	–	–	5.166	4.389	3.763
x2 = 0.8001	943.88	939.68	935.48	–	–	–
x2 = 0.8007	–	–	–	5.595	4.737	4.035
x2 = 0.8505	912.27	908.25	904.23	–	–	–
x2 = 0.8971	–	–	–	6.506	5.365	4.627
x2 = 0.8979	883.17	879.34	875.45	–	–	–
x2 = 0.9513	851.1	847.45	843.75	–	–	–

CCCCCCCO [heptan-1-ol] + ClCCCl
Details	mass density, 293.15 K [kg/m3]	mass density, 298.15 K [kg/m3]	mass density, 303.15 K [kg/m3]	viscosity, 293.15 K [mPa·s]	viscosity, 298.15 K [mPa·s]	viscosity, 303.15 K [mPa·s]
x1 = 0.0502	1213.23	1206.24	1199.3	–	–	–
x1 = 0.1023	–	–	–	0.922	0.851	0.796
x1 = 0.1024	1175.9	1169.21	1162.55	–	–	–
x1 = 0.1493	1145.01	1138.62	1132.15	–	–	–
x1 = 0.2009	–	–	–	1.104	1.006	0.928
x1 = 0.2511	1085.65	1079.74	1073.87	–	–	–
x1 = 0.2957	–	–	–	1.342	1.215	1.105
x1 = 0.3445	1038.38	1032.88	1027.38	–	–	–
x1 = 0.3465	–	–	–	1.501	1.353	1.227
x1 = 0.3896	1017.38	1012.13	1006.83	–	–	–
x1 = 0.4198	1004.18	999.04	993.91	–	–	–
x1 = 0.455	989.42	984.4	979.35	–	–	–
x1 = 0.4616	–	–	–	1.939	1.732	1.546
x1 = 0.5017	970.85	966	961.14	–	–	–
x1 = 0.5035	–	–	–	2.139	1.901	1.699
x1 = 0.5437	–	–	–	2.355	2.079	1.844
x1 = 0.551	952.41	947.76	943.04	–	–	–
x1 = 0.5998	–	–	–	2.703	2.367	2.089
x1 = 0.6036	933.66	929.17	924.63	–	–	–
x1 = 0.6481	918.87	914.5	910.13	–	–	–
x1 = 0.6602	914.96	910.61	906.29	–	–	–
x1 = 0.6956	903.77	899.55	895.28	–	–	–
x1 = 0.6972	–	–	–	3.412	2.955	2.583
x1 = 0.7475	–	–	–	3.887	3.354	2.905
x1 = 0.748	887.98	883.88	879.79	–	–	–
x1 = 0.7974	873.84	869.91	865.91	–	–	–
x1 = 0.7978	–	–	–	4.397	3.773	3.253
x1 = 0.8548	858.28	854.47	850.61	–	–	–
x1 = 0.8862	–	–	–	5.474	4.65	3.979
x1 = 0.8898	849.21	845.44	841.7	–	–	–
x1 = 0.9489	834.67	831.05	827.43	–	–	–
